Test results taken from patent publication US20230248715A1, “METHOD OF TREATING ACUTE MIGRAINE WITH CGRP-ACTIVE COMPOUND” (Merck Sharp & Dohme Corp., priority 2016, published 2023).

Legend:
[1] = system: acute migraine; experiment: Phase IIb randomized, double-blind, placebo-controlled trial of ubrogepant (MK-1602-006; NCT01613248): efficacy; assay type: in vivo, human
Experimental: A Phase IIb, multicenter, randomized, double-blind, placebo-controlled trial was conducted (Merck Protocol MK-1602-006;published online at ClinicalTrials.gov as NCT01613248) to investigate the efficacy and safety of ubrogepant across a range of doses. The study was conducted in accordance with principles of Good Clinical Practice, and was approved by Schulman Associates Institutional Review Board Inc. Each participant provided written informed consent. This study complied with the International Headache Society's guidelines for controlled trials of drugs in migraine, including the use of two-hour pain freedom as an endpoint. The sample size was large, populations were well balanced, and demographics were reflective of the broader migraine populations, contributing to the generalizability of the trial. Participants were allocated in a double-blind fashion using a computer-generated randomized allocation schedule prepared by a blinded statistician. Randomization was stratified based on the participant's self-reported usual triptan response: oral triptan high-responder (current users of triptans who respond […]); oral triptan low-responder (current users of triptans who respond <75% of the time or those who have tried triptans but no longer use them); oral triptan naive. Numbered containers were used to implement allocation. Personnel at each study site used a central interactive voice response system to determine which container should be given to which participant. All study personnel, including investigators, site staff, participants, and sponsor staff remained blinded to treatment allocation throughout the study. Unblinding took place after data collection was complete. After being randomized, participants had up to two months to treat a qualifying migraine (as defined herein). Once the targeted number of treated participants with evaluable data was reached, study enrollment was stopped, as specified in the protocol at the sponsor's discretion. Participants who were enrolled but had not treated a migraine were asked to return their study medication and were discontinued from the study With reference to FIG. 1, eligible participants were allocated in a 1:1 ratio to one of the following treatment groups: 1, 10, 25, 50, and 100 mg of ubrogepant, or placebo. Study medication was provided to participants in a single bottle, with a single dose per bottle. Participants were instructed to take the dose when they experienced a qualifying migraine defined by the following conditions: migraine headache was moderate or severe (grade 2 or 3 on pain scale); migraine headache started less than four hours earlier; the migraine headache was a new headache that had not been previously treated and was not a recurrence of a previous migraine head ache (at least 48 hours had elapsed since the complete termination of their last attack (pain and all associated symptoms); no other migraine headache or headache had occurred in the previous 48 hours; the migraine headache was not already resolving on its own; and no prohibited medication had been taken. The onset of migraine and the results from administering the study medication were self-reported by participants using a paper diary. Headache severity was measured on the following pain scale: 0 none; 1 mild; 2 moderate; 3 severe. Participants assessed headache at baseline and then every 30 minutes up to two hours, then hourly up to four hours and at 6,8,24, and 48 hours. The primary efficacy endpoints were pain freedom at two hours post-dose (reduction in headache severity from grade 2 or 3 at baseline to grade 0) and headache response at two hours post-dose (reduction in headache severity from grade 2 or 3 at baseline to grade 1 or 0). […]

[2] = Phase IIb randomized, double-blind, placebo-controlled trial of ubrogepant (MK-1602-006; NCT01613248): safety endpoints; assay type: in vivo, human
Experimental: A Phase IIb, multicenter, randomized, double-blind, placebo-controlled trial was conducted (Merck Protocol MK-1602-006;published online at ClinicalTrials.gov as NCT01613248) to investigate the efficacy and safety of ubrogepant across a range of doses. The study was conducted in accordance with principles of Good Clinical Practice, and was approved by Schulman Associates Institutional Review Board Inc. Each participant provided written informed consent. This study complied with the International Headache Society's guidelines for controlled trials of drugs in migraine, including the use of two-hour pain freedom as an endpoint. The sample size was large, populations were well balanced, and demographics were reflective of the broader migraine populations, contributing to the generalizability of the trial.
With reference to FIG. 1, eligible participants were allocated in a 1:1 ratio to one of the following treatment groups: 1, 10, 25, 50, and 100 mg of ubrogepant, or placebo. Study medication was provided to participants in a single bottle, with a single dose per bottle. Participants were instructed to take the dose when they experienced a qualifying migraine defined by the following conditions: migraine headache was moderate or severe (grade 2 or 3 on pain scale); migraine headache started less than four hours earlier; the migraine headache was a new headache that had not been previously treated and was not a recurrence of a previous migraine head ache (at least 48 hours had elapsed since the complete termination of their last attack (pain and all associated symptoms); no other migraine headache or headache had occurred in the previous 48 hours; the migraine headache was not already resolving on its own; and no prohibited medication had been taken.
Participants were also monitored for safety endpoints, including standard safety assessment (medical history and physical examination; vital signs; electrocardiogram; laboratory tests including hematology, blood chemistry, and urinalysis; and female participants of childbearing potential were administered pregnancy tests) and adverse events, including any post-screening elevation in participants of aspartate amino-transferase (AST) and/or ALT, defined as: >3×upper-limit-of-normal (>3×ULN).
For the analysis of efficacy data, the Full-Analysis-Set population served as the primary population. […] The All-Subjects-as-Treated (ASaT) population was used for safety analyses.

C[C@@H]1[C@H](c2ccccc2)C[C@H](NC(=O)c2cnc3c(c2)C[C@@]2(C3)C(=O)Nc3ncccc32)C(=O)N1CC(F)(F)F [ubrogepant]
two-hour pain-free rate vs placebo ([1]; 25 mg, oral, two hours post-dose, nominal p value): nominally significantly higher two-hour pain-free rate than placebo | sustained pain freedom 2-24 hours vs placebo ([1]; 25 mg, oral, nominal p value): Nominally significant differences from placebo | sustained pain relief 2-48 hours vs placebo ([1]; 25 mg, oral, nominal p value): Nominally significant differences from placebo | total migraine freedom at two hours vs placebo ([1]; 25 mg, oral, nominal p value): Nominally significant differences from placebo | two-hour pain-free rate vs placebo ([1]; 50 mg, oral, two hours post-dose, nominal p value): nominally significantly higher two-hour pain-free rate than placebo | absence of phonophobia at two hours vs placebo ([1]; 50 mg, oral, nominal p value): Nominally significant differences from placebo | absence of photophobia at two hours vs placebo ([1]; 50 mg, oral, nominal p value): Nominally significant differences from placebo | sustained pain freedom 2-24 hours vs placebo ([1]; 50 mg, oral, nominal p value): Nominally significant differences from placebo | sustained pain relief 2-24 hours vs placebo ([1]; 50 mg, oral, nominal p value): Nominally significant differences from placebo | sustained pain relief 2-48 hours vs placebo ([1]; 50 mg, oral, nominal p value): Nominally significant differences from placebo | total migraine freedom 2-24 hours vs placebo ([1]; 50 mg, oral, nominal p value): Nominally significant differences from placebo | total migraine freedom at two hours vs placebo ([1]; 50 mg, oral, nominal p value): Nominally significant differences from placebo | two-hour pain freedom vs placebo ([1]; 100 mg, oral, two hours post-dose): statistically significant superiority to placebo | secondary endpoints vs placebo ([1]; 100 mg, oral, nominal p values): nominally significant improvements vs placebo on all secondary endpoints except absence of nausea at two hours | treatment effects across most endpoints (all efficacy data) ([1]; 25-mg, 50-mg, and 100-mg doses): consistent positive treatment effects | response trend across ubrogepant doses, proportion of participants who achieved two-hour pain freedom ([1]; oral tablet, single dose, 1, 10, 25, 50, 100 mg, p<0.001 for trend test): positive response trend | dose dependence of AEs ([2]; 1-100 mg single dose): No AEs showed clear dose dependence | incidence of AEs within the 14 days post-dose ([2]; compared with incidence within 48 hours): generally similar to the incidence within 48 hours | other abnormal laboratory values ([2]; single dose): no other abnormal laboratory values of clinical relevance | post-treatment elevations of ALT >3×ULN ([2]; single dose): no observed post-treatment elevations | liver enzyme increases ([2]; single-dose study): no liver enzyme increases clearly attributable to administration of ubrogepant | tolerability on administration ([2]; summary statement): well-tolerated
